Reference: patent publication US10294234B2, “HIV inhibitor compounds” (priority 2017, dated 2019)
Like-named read-outs stand apart in the source and are kept apart here.

System: HIV-1 (IIIB) in MT-4 cells
Assay: MT-4 HIV assay
Type: cell-based
Settings: Human immunodeficiency virus 1, MT4, 120 h
How it was run: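 MT-4 cells infected with HIV-1 IIIB (1:250 stock dilution) were incubated with 1:3 serially diluted compounds in RPMI with 10% FBS for 5 days at 37 °C. Cell Titer Glo luminescence was the readout. Plates included mock-infected wells, no-drug wells and 5 uM AZT controls.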

[1] = HIV-1 (IIIB), MT-4 cells, 5 days, Cell Titer Glo, read-out: EC50

Row | SMILES | EC50 [1] [nM] | EC50 [nM]
1 | CCC(=O)N[C@H](C(=O)N[C@@H](Cc1ccc(C#Cc2cnc(N3CC4CCC(C3)N4C3COC3)nc2)cc1)[C@@H](O)CN(Cc1c(F)cc(-c2ccn(C(F)F)n2)cc1F)NC(=O)[C@@H](NC(=O)CC)C(C)(C)C(F)(F)F)C(C)(C)C(F)(F)F [Example 181, (2S)—N-((2S,3S)-4-(1-(4-(1-(difluoromethyl)-1H-pyrazol-3-yl)-2,6-difluorobenzyl)-2-((S)-4,4,4-trifluoro-3,3-dimethyl-2-propionamidobutanoyl)hydrazinyl)-3-hydroxy-1-(4-((2-(8-(oxetan-3-yl)-3,8-diazabicyclo[3.2.1]octan-3-yl)pyrimidin-5-yl)ethynyl)phenyl)butan-2-yl)-4,4,4-trifluoro-3,3-dimethyl-2-propionamidobutanamide] | 8.5 | 
2 | CC(=O)N[C@H](C(=O)N[C@@H](Cc1ccc(C#Cc2ccc(N3CC4CCC(C3)N4C3COC3)nc2)cc1)[C@@H](O)CN(Cc1c(F)cc(-c2ccn(C(F)F)n2)cc1F)NC(=O)[C@@H](NC(C)=O)C(C)(C)C(F)(F)F)C(C)(C)C(F)(F)F [Example 182, (2S)-2-acetamido-N-((2S,3S)-4-(2-((S)-2-acetamido-4,4,4-trifluoro-3,3-dimethylbutanoyl)-1-(4-(1-(difluoromethyl)-1H-pyrazol-3-yl)-2,6-difluorobenzyl)hydrazinyl)-3-hydroxy-1-(4-((6-(8-(oxetan-3-yl)-3,8-diazabicyclo[3.2.1]octan-3-yl)pyridin-3-yl)ethynyl)phenyl)butan-2-yl)-4,4,4-trifluoro-3,3-dimethylbutanamide] | 8.82 | 
3 | COC(=O)N[C@H](C(=O)N[C@@H](Cc1ccc(C#Cc2ccc(N3CC4CCC(C3)N4C3COC3)nc2)cc1)[C@@H](O)CN(Cc1c(F)cc(-c2ccn(C(F)F)n2)cc1F)NC(=O)[C@@H](NC(=O)OC1CC1)C(C)(C)C)C(C)(C)C(F)(F)F [Example 187, cyclopropyl ((5S,8S,9S,14S)-11-(4-(1-(difluoromethyl)-1H-pyrazol-3-yl)-2,6-difluorobenzyl)-9-hydroxy-15,15-dimethyl-8-(4-((6-(8-(oxetan-3-yl)-3,8-diazabicyclo[3.2.1]octan-3-yl)pyridin-3-yl)ethynyl)benzyl)-3,6,13-trioxo-5-(1,1,1-trifluoro-2-methylpropan-2-yl)-2-oxa-4,7,11,12-tetraazahexadecan-14-yl)carbamate] | 4.7 | 
4 | COC(=O)N[C@H](C(=O)N[C@@H](Cc1ccc(-c2ccc(N3C[C@H]4C[C@@H]3CN4C3COC3)nc2)cc1)[C@@H](O)CN(Cc1c(F)cc(-c2ccn(CC(F)F)n2)cc1F)NC(=O)[C@@H](NC(=O)OC)C(C)(C)C(F)(F)F)C(C)(C)C(F)(F)F [Example 188, methyl ((5S,8S,9S,14S)-11-(4-(1-(2,2-difluoroethyl)-1H-pyrazol-3-yl)-2,6-difluorobenzyl)-16,16,16-trifluoro-9-hydroxy-15,15-dimethyl-8-(4-(6-((1R,4R)-5-(oxetan-3-yl)-2,5-diazabicyclo[2.2.1]heptan-2-yl)pyridin-3-yl)benzyl)-3,6,13-trioxo-5-(1,1,1-trifluoro-2-methylpropan-2-yl)-2-oxa-4,7,11,12-tetraazahexadecan-14-yl)carbamate] | 9 | 
5 | COC(=O)N[C@H](C(=O)N[C@@H](Cc1ccc(-c2cnc(N3CC4CCC(C3)N4C3COC3)nc2)cc1)[C@@H](O)CN(Cc1c(F)cc(-c2cn(C(F)F)cn2)cc1F)NC(=O)[C@@H](NC(=O)OC)C(C)(C)C(F)(F)F)C(C)(C)C(F)(F)F [Example 189, Methyl ((5S,8S,9S,14S)-11-(4-(1-(difluoromethyl)-1H-imidazol-4-yl)-2,6-difluorobenzyl)-16,16,16-trifluoro-9-hydroxy-15,15-dimethyl-8-(4-(2-(8-(oxetan-3-yl)-3,8-diazabicyclo[3.2.1]octan-3-yl)pyrimidin-5-yl)benzyl)-3,6,13-trioxo-5-(1,1,1-trifluoro-2-methylpropan-2-yl)-2-oxa-4,7,11,12-tetraazahexadecan-14-yl)carbamate] | 5.47 | 
6 | COC(=O)N[C@H](C(=O)NN(Cc1c(F)cc(-c2cn(C(F)F)cn2)cc1F)C[C@H](O)[C@H](Cc1ccc(-c2cnc(N3CC4CCC(C3)N4C3COC3)nc2)cc1)NC(=O)[C@@H](NC(=O)OC)C(C)(C)C(F)(F)F)C(C)(C)C [Example 190, methyl ((5S,8S,9S,14S)-11-(4-(1-(difluoromethyl)-1H-imidazol-4-yl)-2,6-difluorobenzyl)-9-hydroxy-15,15-dimethyl-8-(4-(2-(8-(oxetan-3-yl)-3,8-diazabicyclo[3.2.1]octan-3-yl)pyrimidin-5-yl)benzyl)-3,6,13-trioxo-5-(1,1,1-trifluoro-2-methylpropan-2-yl)-2-oxa-4,7,11,12-tetraazahexadecan-14-yl)carbamate] | 7.06 | 
7 | COC(=O)N[C@H](C(=O)N[C@@H](Cc1ccc(-c2cnc(N3C[C@H]4C[C@@H]3CN4C3COC3)nc2)cc1)[C@@H](O)CN(Cc1c(F)cc(-c2ccn(CC(F)F)n2)cc1F)NC(=O)[C@@H](NC(=O)OC)C(C)(C)C(F)(F)F)C(C)(C)C(F)(F)F [Example 191, Methyl ((5S,8S,9S,14S)-11-(4-(1-(2,2-difluoroethyl)-1H-pyrazol-3-yl)-2,6-difluorobenzyl)-16,16,16-trifluoro-9-hydroxy-15,15-dimethyl-8-(4-(2-((1R,4R)-5-(oxetan-3-yl)-2,5-diazabicyclo[2.2.1]heptan-2-yl)pyrimidin-5-yl)benzyl)-3,6,13-trioxo-5-(1,1,1-trifluoro-2-methylpropan-2-yl)-2-oxa-4,7,11,12-tetraazahexadecan-14-yl)carbamate] |  | 17.4
8 | COC(=O)N[C@H](C(=O)NN(Cc1c(F)cc(-c2ccn(CC(F)F)n2)cc1F)C[C@H](O)[C@H](Cc1ccc(-c2cnc(N3CC4CCC(C3)N4C3COC3)nc2)cc1)NC(=O)[C@@H](NC(=O)OC)C(C)(C)C(F)(F)F)C(C)(C)C [Example 193, Methyl ((5S,8S,9S,14S)-11-(4-(1-(2,2-difluoroethyl)-1H-pyrazol-3-yl)-2,6-difluorobenzyl)-9-hydroxy-15,15-dimethyl-8-(4-(2-(8-(oxetan-3-yl)-3,8-diazabicyclo[3.2.1]octan-3-yl)pyrimidin-5-yl)benzyl)-3,6,13-trioxo-5-(1,1,1-trifluoro-2-methylpropan-2-yl)-2-oxa-4,7,11,12-tetraazahexadecan-14-yl)carbamate] | 2.78 | 
9 | COC(=O)N[C@H](C(=O)N[C@@H](Cc1ccc(-c2ccc(N3C[C@H]4C[C@@H]3CN4C3COC3)nc2)cc1)[C@@H](O)CN(Cc1c(F)cc(-c2ccn(C3CC3)n2)cc1F)NC(=O)[C@@H](NC(=O)OC)C(C)(C)C(F)(F)F)C(C)(C)C(F)(F)F [Example 194, Methyl ((5S,8S,9S,14S)-11-(4-(1-cyclopropyl-1H-pyrazol-3-yl)-2,6-difluorobenzyl)-16,16,16-trifluoro-9-hydroxy-15,15-dimethyl-8-(4-(6-((1R,4R)-5-(oxetan-3-yl)-2,5-diazabicyclo[2.2.1]heptan-2-yl)pyridin-3-yl)benzyl)-3,6,13-trioxo-5-(1,1,1-trifluoro-2-methylpropan-2-yl)-2-oxa-4,7,11,12-tetraazahexadecan-14-yl)carbamate] |  | 7.2
10 | COC(=O)N[C@H](C(=O)N[C@@H](Cc1ccc(-c2ccc(N3C[C@H]4C[C@@H]3CN4C3COC3)nc2)cc1)[C@@H](O)CN(Cc1c(F)cc(-c2ccn(C(F)F)n2)cc1F)NC(=O)[C@@H](NC(=O)OC)C(C)(C)C(F)(F)F)C(C)(C)C(F)(F)F [Example 196, Methyl ((5S,8S,9S,14S)-11-(4-(1-(difluoromethyl)-1H-pyrazol-3-yl)-2,6-difluorobenzyl)-16,16,16-trifluoro-9-hydroxy-15,15-dimethyl-8-(4-(6-((1R,4R)-5-(oxetan-3-yl)-2,5-diazabicyclo[2.2.1]heptan-2-yl)pyridin-3-yl)benzyl)-3,6,13-trioxo-5-(1,1,1-trifluoro-2-methylpropan-2-yl)-2-oxa-4,7,11,12-tetraazahexadecan-14-yl)carbamate] |  | 10.5
11 | COC(=O)N[C@H](C(=O)N[C@@H](Cc1ccc(-c2ccc(N3CC4CC(C3)N4C3COC3)nc2)cc1)[C@@H](O)CN(Cc1c(F)cc(-c2ccn(C(F)F)n2)cc1F)NC(=O)[C@@H](NC(=O)OC)C(C)(C)C(F)(F)F)C(C)(C)C(F)(F)F [Example 202, Methyl ((5S,8S,9S,14S)-11-(4-(1-(difluoromethyl)-1H-pyrazol-3-yl)-2,6-difluorobenzyl)-16,16,16-trifluoro-9-hydroxy-15,15-dimethyl-8-(4-(6-(6-(oxetan-3-yl)-3,6-diazabicyclo[3.1.1]heptan-3-yl)pyridin-3-yl)benzyl)-3,6,13-trioxo-5-(1,1,1-trifluoro-2-methylpropan-2-yl)-2-oxa-4,7,11,12-tetraazahexadecan-14-yl)carbamate] | 9.67 | 
12 | COC(=O)N[C@H](C(=O)N[C@@H](Cc1ccc(-c2ccc(N3CC4CCC(C3)N4C3COC3)nc2)cc1)[C@@H](O)CN(Cc1c(F)cc(-c2nnc(C3CC3)o2)cc1F)NC(=O)[C@@H](NC(=O)OC)C(C)(C)C(F)(F)F)C(C)(C)C(F)(F)F [Example 205, Methyl ((5S,8S,9S,14S)-11-(4-(5-cyclopropyl-1,3,4-oxadiazol-2-yl)-2,6-difluorobenzyl)-16,16,16-trifluoro-9-hydroxy-15,15-dimethyl-8-(4-(6-(8-(oxetan-3-yl)-3,8-diazabicyclo[3.2.1]octan-3-yl)pyridin-3-yl)benzyl)-3,6,13-trioxo-5-(1,1,1-trifluoro-2-methylpropan-2-yl)-2-oxa-4,7,11,12-tetraazahexadecan-14-yl)carbamate] | 5.25 | 
13 | COC(=O)N[C@H](C(=O)N[C@@H](Cc1ccc(-c2cnn(C(F)F)c2)cc1)[C@@H](O)CN(Cc1c(F)cc(-c2cnn(C(F)F)c2)cc1F)NC(=O)[C@@H](NC(=O)OC)C(C)(C)C(F)(F)F)C(C)(C)C(F)(F)F [Example 211, Methyl ((5S,8S,9S,14S)-11-(4-(1-(difluoromethyl)-1H-pyrazol-4-yl)-2,6-difluorobenzyl)-8-(4-(1-(difluoromethyl)-1H-pyrazol-4-yl)benzyl)-16,16,16-trifluoro-9-hydroxy-15,15-dimethyl-3,6,13-trioxo-5-(1,1,1-trifluoro-2-methylpropan-2-yl)-2-oxa-4,7,11,12-tetraazahexadecan-14-yl)carbamate] | 5.75 | 
